Assay results published in patent US11680078B2, “Anticancer compounds” (GODAVARI BIOREFINERIES LIMITED, priority 2017, dated 2023).
Like-named read-outs stand apart in the source and are kept apart here.

Experiments:
[1] = tested on: spheres of MDAMB231; experiment: In vitro sphere-forming assay, MDAMB231 in Mammosphere media; format: cell-based; details: 2000 cells/well, n = 6 ± S.D
Excerpt: (§1) Sphere assay measures the ability of Cancer Stein Cells to form spheres in specially designed serum-free medium. We have used this assay to measure the killing efficiency of the test compounds as compared to the standard chemotherapeutic drug, Cisplatin.
(§2) Materials and Reagents:50× B27 Supplement (Life Technologies, Invitrogen, Catalog No.: 17502-044), Fibroblast Growth Factor (FGF) (Sigma-Aldrich, Catlog No.: F029125), Epidermal Growth Factor (EGF) (Sigma-Aldrich, Catlog No.: E9644), Insulin (Sigma, Catlog No.: 19278), Dulbecco's Modified Eagle Medium/F12 (HiMedia Catlog No.: AL139-6), Dulbecco's Phosphate Buffered Saline (HiMedia Catlog No.: TL1006), Trypan Blue (TC193), Prostate Epithelial Media (LONZA, Catlog No.: CC-3166) MEGM (LONZA, Catlog No.: CC-3051), Heparin (Sigma, Catlog No.: H3393), Penstrep (HiMedia, Catlog No.: A002)
Mammosphere Media Preparation (For 100 mL): 1 g methyl cellulose autoclaved with magnetic stirrer Plain media (MEBM), 100 mL added and dissolved under magnetic stirring. After complete dissolution, add: FGF-80 μL, EGF-40 μL, Penstrep-1 mL, Heparin-400 μL.
(§3) Procedure: —The cells were trypsinised and made into single-cell suspension by passing through cell strainers ([…], respectively), The cells were diluted at the concentration of 2000 cells/100 μL and suspended in either Mammosphere (for breast cell lines) or Prostosphere (for prostate cell lines). 100 μL of this suspension was added into each well of 96-well suspension plates and incubated at 37° C., 5% CO2 for 24 hrs. Appropriate concentrations of the drugs (2 μL) were added into respective wells with 100 μL of stem cell culture medium. Plates were incubated at 37° C., 5% CO2 for 72 hrs. After incubation 2.5 μL of the respective drug concentration and 50 μL of stem cell culture medium were added into each well and the plates were further incubated at 37° C., 5% CO2 for 72 hrs. 3 μL of the respective drug concentration was added with 50 μL of stem cell culture medium again after incubation and plates were incubated again for 72 hrs at 37° C., 5% CO2. Number of primary spheres formed for each concentration was counted. A comparative graph of number of spheres formed was plotted against the concentration and the growth curve was compared with the positive control.

[2] = tested on: MDAMB231; experiment: MTT antiproliferative assay, MDAMB231; format: cell-based; details: Homo sapiens, MDA-MB-231; MDAMB231 breast cell line, 48 hrs drug incubation
Procedure: (§4) MTT assay is a simple and sensitive assay where, metabolic reducing activity of the cells is measured. The increase of this activity in time is taken as a parameter of cell growth. If treatment with a drug impairs this increase, the action may be a consequence of growth inhibition, cell killing or both. The compounds of Formula V to XIV of the present invention, standard cytotoxic drug (e.g. Cisplatin) were tested at different concentrations (1, 0.1, 0.01, 0.001 mM) using breast and prostate cancer cell lines. All cell lines were cultured in a 37° C. incubator with a 5% CO2 environment. Compounds were dissolved in DMSO with a concentration of 0.1M (stock solution). Cells were seeded into 96-well plates at suitable plating efficiency.
(§5) Following Plating Efficiencies were Standardized for MTT Assay:
(§6) The MTT procedure followed was as follows. Briefly, the cells were plated in 96 well plate as per predetermined plating efficiency (Table 1) The plates were then incubated for 24 hrs in 5% CO2 atmosphere at 37° C. Appropriate concentrations of the drugs were then added to the plate and further incubation was carried out for 48 hrs (in 5% CO2 atmosphere at 37° C.). The assay plate was then centrifuged twice at 3000 rpm for 3 mins and supernatant was then discarded. 100 ul of MTT solution (0.5 mg/ml) was then added to each well of the plate and it was further incubated for 4 hrs (in 5% CO2 atmosphere at 37° C.) Following 4 hr incubation, the plate was then centrifuged twice, and supernatant was aspirated off very carefully. 200 ul of DMSO was then added to each well to solubilize. MTT crystals and mixed well by shaking the plate. XY graph of log Percent viability was then plotted against log drug concentration. […] (Drug concentration inhibiting the 50% of cell population) was then calculated by regression analysis.

[3] = tested on: PC3; experiment: MTT antiproliferative assay, PC3; format: cell-based; details: Homo sapiens, PC-3; PC3 prostate cell line, 48 hrs drug incubation
Procedure: as §4, §5, §6

[4] = tested on: MDAMB231; experiment: Soft Agar colony-formation Assay, MDAMB231; format: cell-based; details: Homo sapiens, MDA-MB-231, 168 h; MDAMB231 breast cell line, 1 week
Procedure: (§7) The Soft Agar Colony-formation Assay is an anchorage-independent growth assay in soft agar, which is one of the most stringent assays for detecting malignant transformation of cells. For this assay, malignant cells are cultured with appropriate controls in soft agar medium for 1-2 weeks. Following this incubation period, formed colonies can either be analyzed morphologically using cell stain and quantifying the number of colonies formed.
(§8) Briefly, for Soft Agar Assay a mixture of 50 ul of 2× medium (taken appropriately as per cell line) and 50 ul of 1.2% Bacto Agar were plated on to each well of 96 well micro titer assay plate. 10 ul of cells (Of specific plating efficiency pre-standardized for respective cell line) were mixed with 20 ul of 2× medium and 30 ul of 0.8% of Bacto Agar and 1.6 ul of drug (of appropriate concentration) in a vial and transferred to the solidified pre-layers of the assay plates. The cells were then allowed to grow and form colonies at 37° C. and 5% CO2 for 1 week. An intermittent feeding with 50 ul of appropriate 2× medium was performed after 3 days of experimental set up. 16 ul of Alamar Blue (1.5 mg/ml) was then added to all the wells to quantify the developed colonies. The plates were incubated for 24 hrs at 37° C. Absorbance was then measured at 630 nm. XY graph of log Percent viability was then plotted against log drug concentration. IC50 (Drug concentration inhibiting the 50% of cell population) was then calculated by regression analysis.
(§9) Following Plating Efficiencies Were Standardized for Soft Agar Assay: […]

[5] = tested on: PC3; experiment: Soft Agar colony-formation Assay, PC3; format: cell-based; details: Homo sapiens, PC-3, 168 h; PC3 prostate cell line, 1 week
Procedure: as §7, §8, §9

[6] = tested on: spheres of PC3; experiment: In vitro sphere-forming assay, PC3 in Prostosphere media; format: cell-based; details: 2000 cells/well, n = 6 ± S.D
Excerpt: as §1, §2
Prostosphere Media Preparation (For 100 mL):1 g methyl cellulose autoclaved with magnetic stirrer, Plain media (Prostate Epithelial Basal Medium), 100 mL added and dissolved, under magnetic stirring. After complete dissolution, add: Insulin-40 μL, B27-2 mL, EGF-80 μL, Penstrep-1 ml.
as §3

[7] = tested on: normal lymphocytes
Procedure: (§10) In order to test the activity of cytotoxic drugs towards normal cells, we performed MTT
(§11) Assay for these cytotoxic drugs using lymphocytes obtained from a healthy donor.
(§12) Briefly, diluted defibrinated fresh blood was overlaid gradually on HiSeP LSM1077 and centrifuged at low speed for 30 mins. The lymphocyte layer (the buffy coat) (Fig) was carefully removed in a new collection tube. The buffy coat was given another wash, by the diluent buffer, to reduce the platelet contamination. The supernatant was discarded, and the pellet was resuspended in diluent buffer. The viability was checked by Haemocytometer. Cells with Viability and Purity of 95% and more were considered for the assay. MTT assay was performed with these cells as described above with plating efficiency of 0.7 million/ml.

[8] = tested on: MCF7; experiment: MTT antiproliferative assay, MCF7; format: cell-based; details: Homo sapiens, MCF7; MCF-7 breast cell line, 48 hrs drug incubation
Procedure: as §4, §5, §6

[9] = tested on: normal lymphocytes; experiment: Normal cell assay (MTT) on lymphocytes from a healthy donor
Procedure: as §10, §11, §12

[10] = tested on: DU145; experiment: MTT antiproliferative assay, DU145; format: cell-based; details: Homo sapiens, DU-145; DU145 prostate cell line, 48 hrs drug incubation
Procedure: as §4, §5, §6

IC50 [2]	IC50 [3]	IC50 [4]	IC50 [5]	activity on normal lymphocytes [7]	IC50 [8]	activity on normal lymphocytes [9]	IC50 [10]	SMILES	3D sphere count of MDAMB231 ([1]; drug conc 0.025 uM)	3D sphere count of MDAMB231 ([1]; drug conc 0.25 uM)	3D sphere count of MDAMB231 ([1]; drug conc 2.5 uM)	3D sphere count of MDAMB231 ([1]; drug conc 25 uM)	3D sphere count of MDAMB231 ([1]; drug conc 250 uM)	3D sphere count of PC3 ([6]; drug conc 0.025 uM)	3D sphere count of PC3 ([6]; drug conc 0.25 uM)	3D sphere count of PC3 ([6]; drug conc 2.5 uM)	3D sphere count of PC3 ([6]; drug conc 25 uM)	3D sphere count of PC3 ([6]; drug conc 250 uM)
4.61 µM	6.19 µM	3.45 µM	10.6 µM	does not show activity	–	–	–	CO[C@H]1[C@H](OC)COC(Oc2ccc(-c3ccc4c(c3)OCO4)c3ccccc23)[C@@H]1O (stereo partly drawn) [Formula V, (3R,4R,5R)-2-(4-(benzo[d][1,3]dioxol-5-yl)naphthalen-1-yloxy)-4,5-dimethoxy-tetrahydro-2H-pyran-3-ol]	40(±3)	24(±3)	12(±1)	7(±2)	0(±0)	50(±5)	40(±5)	36(±3)	21(±4)	0(±0)
2.04 µM	6.32 µM	7.91 µM	0.36 µM	–	2.78 µM	does not show activity	3.57 µM	COc1cc2c(OC(=O)c3cccn3C)c3c(c(-c4ccc5c(c4)OCO5)c2cc1OC)C(=O)OC3 [Formula VII, 9-(benzo[d][1,3]dioxol-5-yl)-6,7-dimethoxy-1-oxo-1,3-dihydronaphtho[2,3-c]furan-4-yl 1-methyl-1H-pyrrole-2-carboxylate]	47(±4)	46(±7)	40(±7)	40(±3)	0(±0)	64(±8)	31(±5)	23(±3)	9(±2)	0(±0)
3.14 µM	3.91 µM	1.32 µM	1.96 µM	–	1.05 µM	does not show activity	4.28 µM	COc1cc2c(OC(=O)C(c3ccccc3)C3CCCC3)c3c(c(-c4ccc5c(c4)OCO5)c2cc1OC)C(=O)OC3 (stereo not shown) [Formula VIII, 9-(benzo[d][1,3]dioxol-5-yl)-6,7-dimethoxy-1-oxo-1,3-dihydronaphtho[2,3-c]furan-4-yl 2-cyclopentyl-2-phenylacetate]	36(±3)	29(±4)	13(±2)	8(±2)	0(±0)	29(±3)	24(±3)	13(±3)	8(±2)	0(±0)
